The target of one data set is T1, COX-1 (Homo sapiens, UniProt P23219).
T1 construct: endogenous in cells; host or cells: heparinised human whole blood from donors, stimulated with the calcium ionophore A23187
The data set can be described thus: Human COX-1 enzyme activity in human whole blood (A23187-stimulated, thromboxane B2 EIA). In kind it is cell-based. The following applies: for inhibition at 100 µM: read-out: COX-1 Inhibition (% at 100 μM). How it is done:
(§1) The blood was transported to the laboratory on ice packs and used within 1.5 hours of collection. Upon receipt in the laboratory, the blood was allowed to come to room temperature for 15 minutes prior to distribution in 1 mL aliquots per well of 24 well tissue culture plates. […] Test compounds were dissolved in DMSO, at 1000 fold the final desired concentration, and further diluted, as indicated, in DMSO. One μL of each dilution of the test compound was added per well, in duplicate wells; wells not receiving test compound (e.g., basal, background or control wells) received 1 μL DMSO. […] Louis, Mo., Catalogue No. […] Louis, Mo., Catalogue No. […] (Again, basal, background or control wells not stimulated with A23187 received 1 μL of DMSO.) At 5 hours after the addition of the test compound, all incubations were terminated by placement on ice and the addition of 2 mM EGTA (100 μL of 20 mM EGTA, tetrasodium, in PBS (phosphate buffered saline) without Ca^++ and Mg^++, pH 7.2)). […] One hundred μL of plasma was removed from each blood sample and added to 1 mL of methanol in new 15 mL polypropylene centrifuge tubes, vortexed, and stored overnight at -20° C. […] The samples were assayed for thromboxane B2 using EIA kits supplied by Cayman Chemical Co. […] The % inhibition for COX-1 and COX-2 enzyme activity in human whole blood by the test compounds, at the indicated concentrations, are given in Table 1.

A further data set deals with T2, COX-2 (Homo sapiens, UniProt P35354).
T2 construct: To induce COX-2, lipopolysaccharide (LPS) from E. coli; endogenous in cells; host or cells: heparinised human whole blood from donors, with COX-2 induced by E. coli LPS
T2 sequence (P35354 18-604): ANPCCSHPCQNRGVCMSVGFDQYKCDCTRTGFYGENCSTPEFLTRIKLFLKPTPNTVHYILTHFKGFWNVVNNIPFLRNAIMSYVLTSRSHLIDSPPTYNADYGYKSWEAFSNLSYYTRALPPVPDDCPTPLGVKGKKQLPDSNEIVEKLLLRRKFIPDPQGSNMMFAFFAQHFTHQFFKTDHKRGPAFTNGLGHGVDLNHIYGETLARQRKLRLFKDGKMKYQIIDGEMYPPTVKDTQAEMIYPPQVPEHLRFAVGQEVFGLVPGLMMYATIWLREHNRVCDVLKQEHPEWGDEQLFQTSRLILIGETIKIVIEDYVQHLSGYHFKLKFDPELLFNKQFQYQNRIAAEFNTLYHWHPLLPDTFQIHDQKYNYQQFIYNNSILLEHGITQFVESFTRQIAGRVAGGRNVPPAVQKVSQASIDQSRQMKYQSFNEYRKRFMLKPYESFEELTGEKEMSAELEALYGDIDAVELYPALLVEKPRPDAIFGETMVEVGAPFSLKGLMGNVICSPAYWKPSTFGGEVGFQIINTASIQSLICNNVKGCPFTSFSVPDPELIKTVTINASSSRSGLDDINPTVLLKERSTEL
The data set can be described thus: Human COX-2 enzyme activity in human whole blood (LPS-induced, thromboxane B2 EIA). In kind it is cell-based. The following applies: for inhibition at 1 µM: read-out: COX-2 Inhibition (% at 1 μM); for inhibition at 10 µM: read-out: COX-2 Inhibition (% at 10 μM). How it is done:
as §1

The mark [1] stands for this setting: 100 μM, human whole blood, A23187 stimulation.
The mark [2] stands for this setting: 1 μM, human whole blood, LPS induction.
[3] abbreviates: 10 μM, human whole blood, LPS induction.

Where two headings read alike, the source gives them in different places.

T1 sequence (P23219 24-599): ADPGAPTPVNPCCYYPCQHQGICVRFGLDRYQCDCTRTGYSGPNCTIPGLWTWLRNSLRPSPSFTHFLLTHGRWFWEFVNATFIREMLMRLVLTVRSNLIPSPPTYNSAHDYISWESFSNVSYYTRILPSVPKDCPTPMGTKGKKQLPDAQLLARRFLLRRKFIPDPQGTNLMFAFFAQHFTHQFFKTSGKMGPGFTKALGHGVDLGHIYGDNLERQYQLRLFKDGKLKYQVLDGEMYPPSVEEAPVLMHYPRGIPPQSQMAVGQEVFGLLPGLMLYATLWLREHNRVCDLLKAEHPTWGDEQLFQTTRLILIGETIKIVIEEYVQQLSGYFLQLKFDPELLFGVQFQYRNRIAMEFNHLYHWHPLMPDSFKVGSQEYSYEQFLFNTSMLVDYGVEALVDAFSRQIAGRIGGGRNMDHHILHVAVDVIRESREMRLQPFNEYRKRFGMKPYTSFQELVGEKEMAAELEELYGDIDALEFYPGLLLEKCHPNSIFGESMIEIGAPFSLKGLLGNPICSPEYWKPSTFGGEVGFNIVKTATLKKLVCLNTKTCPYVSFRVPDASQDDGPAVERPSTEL

`CS(=O)(=O)c1ccc(-c2cc(CO[N+](=O)[O-])nn2C2CCCCCC2)cc1` [Example 2d, 1-(1-Cycloheptyl-3-((nitrooxy)methyl)pyrazol-5-yl)-4-(methylsulfonyl)benzene] registered a melting point of 119 to 120 °C. Besides, the inhibition at 100 µM on COX-1 (setting [1]) was 35%. Moreover, at COX-2 (setting [2]), the inhibition at 1 µM stood at 60%. Besides, the inhibition at 10 µM at COX-2 (setting [3]) amounted to 90%.
The matching figures for `CS(=O)(=O)c1ccc(-c2cc(/C=C\CCO[N+](=O)[O-])nn2C2CCCCC2)cc1` [Example 4f, 1-(3-((1Z)-4-(Nitrooxy)but-1-enyl)-1-cyclohexylpyrazol-5-yl)-4-(methylsulfonyl)benzene]: 137 to 138 °C, 20%, 70% and 95%.
Turning to `Cc1ccc(-c2[nH]nc(COCCCO[N+](=O)[O-])c2-c2ccc(S(N)(=O)=O)cc2)cc1` [Example 20g, 4-(5-(4-Methylphenyl)-3-((3-(nitrooxy)propoxy)methyl)pyrazolyl)benzenesulfonamide], the melting point is 62 °C.
Take `NS(=O)(=O)c1ccc(-c2c(-c3ccccc3)noc2COCCO[N+](=O)[O-])cc1` [Example 27b]: the “COX-1 Inhibition (% at 100 μM)” value on COX-1 (setting [1]) is given as 65%. At COX-2 (setting [2]), the “COX-2 Inhibition (% at 1 μM)” value came to 50%. The “COX-2 Inhibition (% at 10 μM)” value on COX-2 (setting [3]) came to 100%.
For the compound `CS(=O)(=O)c1ccc(-c2cc(CCO[N+](=O)[O-])nn2C2CCCCC2)cc1` [Example 30d, 4-(1-Cyclohexyl-3-(2-(nitrooxy)ethyl)pyrazol-5-yl)-1-(methylsulfonyl)benzene], the melting point is 117 °C.
`CS(=O)(=O)c1ccc(-c2cc(/C=C/CO)nn2C2CCCCC2)cc1` [Example 31c, 4-(3-((1E)-3-Hydroxyprop-1-enyl)-1-cyclohexylpyrazol-5-yl)-1(methylsulfonyl)benzene]: on COX-1 (setting [1]), the inhibition at 100 µM is 10%. For the same compound, on COX-2 (setting [2]), the inhibition at 1 µM was found to be 0%. Further, the inhibition at 10 µM on COX-2 (setting [3]) was 15%.
Take `CS(=O)(=O)c1ccc(-c2cc(CCCO[N+](=O)[O-])nn2C2CCCCC2)cc1` [Example 31e, 4-(1-Cyclohexyl-3-(3-(nitrooxy)propyl)pyrazol-5-yl)-1-(methylsulfonyl)benzene]: the melting point was found to be 77 °C.
Turning to `NS(=O)(=O)c1ccc(-c2c(-c3ccccc3)noc2COCC(F)(F)CO)cc1` [Example 32c, 4-(5-((2,2-Difluoro-3-hydroxypropoxy)methyl)-3-phenylisoxazol-4-yl)benzenesulfonamide], the inhibition at 100 µM at COX-1 (setting [1]) was -20%. Besides, the inhibition at 1 µM on COX-2 (setting [2]) came to 15%. Moreover, on COX-2 (setting [3]), the inhibition at 10 µM came out at 75%.
Take `NS(=O)(=O)c1ccc(-c2c(-c3ccccc3)noc2COCC(F)(F)CO[N+](=O)[O-])cc1` [Example 32d, 4-(5-((2,2-Difuoro-3-(nitrooxy)propoxy)methyl)-3-phenylisoxazol-4-yl)benzenesulfoamide]: the “COX-1 Inhibition (% at 100 μM)” value on COX-1 (setting [1]) amounted to 0%. Also, the “COX-2 Inhibition (% at 1 μM)” value at COX-2 (setting [2]) is listed as 20%. Also, the “COX-2 Inhibition (% at 10 μM)” value at COX-2 (setting [3]) came to 85%.
In the same order, the values of `NS(=O)(=O)c1ccc(-c2c(-c3ccccc3)noc2COCC(F)(F)C(F)(F)CO)cc1` [Example 33a] are 75%, 40% and 100%.
On to `NS(=O)(=O)c1ccc(-c2c(-c3ccccc3)noc2COCC(F)(F)C(F)(F)C(F)(F)CO)cc1` [Example 34a, 4-(5-((2,2,3,3,4,4-Hexafluoro-5-hydroxypentyloxy)methyl)-3-phenylisoxazol-4-yl)benzenesulfonamide], for which the inhibition at 100 µM on COX-1 was found to be 95%. Further, at COX-2, the inhibition at 1 µM was 90% and the inhibition at 10 µM is 100%.
Consider `CS(=O)(=O)c1ccc(-c2cc(C(=O)CO[N+](=O)[O-])nn2-c2ccccn2)cc1` [Example 35c, 1-(5-(4-(Methysulfonyl)phenyl)-1-(2-pyridyl)pyrazol-3-yl)-2-(nitrooxy)ethan-1-one], for which the “COX-1 Inhibition (% at 100 μM)” value on COX-1 (setting [1]) came to 0%. Besides, on COX-2 (setting [2]), the “COX-2 Inhibition (% at 1 μM)” value is 25%. Moreover, the “COX-2 Inhibition (% at 10 μM)” value on COX-2 (setting [3]) was found to be 30%.
With `NS(=O)(=O)c1ccc(-c2c(-c3ccccc3)noc2COCCS(=O)(=O)CCO)cc1` [Example 37b, 4-(5-((2-((2-Hydroxyethyl)sulfonyl)ethoxy)methyl)-3-phenylisoxazol-4-yl)benzenesulfonamide], on COX-1 (setting [1]), the inhibition at 100 µM turned out to be 50%. The inhibition at 1 µM at COX-2 (setting [2]) was 35%. Also, the inhibition at 10 µM on COX-2 (setting [3]) worked out at 90%.
For the compound `NS(=O)(=O)c1ccc(-c2c(-c3ccccc3)noc2COCCS(=O)(=O)CCO[N+](=O)[O-])cc1` [Example 37c], at COX-1 (setting [1]), the “COX-1 Inhibition (% at 100 μM)” value was −15%. Besides, the “COX-2 Inhibition (% at 1 μM)” value on COX-2 (setting [2]) was 20%. The “COX-2 Inhibition (% at 10 μM)” value at COX-2 (setting [3]) turned out to be 20%.
As for `CS(=O)(=O)c1ccc(-c2cc(CNCCO)nn2C2CCCCC2)cc1` [Example 38c, 1-(1-Cyclohexyl-3-(((2-hydroxyethyl)amino)methyl)pyrazol-5-yl)-4-(methylsulfonyl)benzene], the inhibition at 100 µM at COX-1 (setting [1]) was found to be 10%. For the same compound, at COX-2 (setting [2]), the inhibition at 1 µM came to 15%. Besides, the inhibition at 10 µM on COX-2 (setting [3]) was 25%.
Consider `COc1ccc(-n2nc(COCCCO[N+](=O)[O-])cc2-c2ccc(S(C)(=O)=O)cc2)cc1` [Example 39, 4-(1-(4-Methoxyphenyl)-3-((3-(nitrooxy)propoxy)methyl)pyrazol-5-yl)-1-(methylsulfonyl)benzene], for which the inhibition at 100 µM at COX-1 (setting [1]) was 100%. At COX-2 (setting [2]), the inhibition at 1 µM stood at 85%. Moreover, at COX-2 (setting [3]), the inhibition at 10 µM is 100%.
`CS(=O)(=O)c1ccc(-c2cc(/C=C/CO[N+](=O)[O-])nn2C2CCCCC2)cc1` [Example 41, 1-(3-((1E)-3-(Nitrooxy)prop-1-enyl)-1-cyclohexylpyrazol-5-yl)-4-(methylsulfonyl)benzene]: the inhibition at 100 µM at COX-1 (setting [1]) is 40%. Further, on COX-2 (setting [2]), the inhibition at 1 µM is 0%. For the same compound, the inhibition at 10 µM on COX-2 (setting [3]) worked out at 45%.
In the same order, the values of `NS(=O)(=O)c1ccc(-c2cc(C(=O)CCCO)nn2C2CCCCC2)cc1` [Example 43g, 4-(1-Cyclohexyl-3-(4-hydroxybutanoyl)pyrazol-5-yl)benzenesulfonamide] are 30%, 0% and 10%.
Turning to `CS(=O)(=O)c1ccc(-c2cc(C(=O)CCCO)nn2-c2ccc(Cl)cc2)cc1` [Example 44d, 1-(1-(4-Chlorophenyl)-5-(4-(methylsulfonyl)phenyl)pyrazol-3-yl)-4-hydroxybutan-1-one], the inhibition at 100 µM on COX-1 (setting [1]) was 10%. Besides, the inhibition at 1 µM at COX-2 (setting [2]) came to 30%. The inhibition at 10 µM on COX-2 (setting [3]) was 60%.
The compound `CS(=O)(=O)c1ccc(-c2cc(C(=O)NCCO[N+](=O)[O-])nn2C2CCCCC2)cc1` [Example 45c, (1-Cyclohexyl-5-(4-(methylsulfonyl)phenyl)pyrazol-3-yl)-N-(2-(nitrooxy)ethyl)carboxamide] registered a melting point of 168 to 170 °C.
On to `CS(=O)(=O)c1ccc(-c2cc(CCCC(=O)OCCCO[N+](=O)[O-])nn2-c2ccc(C(F)(F)F)cc2)cc1` [Example 47f, 3-(Nitrooxy)propyl 4-(5-(4-(methylsulfonyl)phenyl)-1-(4-(trifluoromethyl)-phenyl)pyrazol-3-yl)butanoate], for which the inhibition at 100 µM at COX-1 (setting [1]) came out at 85%. Further, at COX-2 (setting [2]), the inhibition at 1 µM amounted to 30%. In addition, the inhibition at 10 µM at COX-2 (setting [3]) stood at 65%.

In general, inhibition refers to the drop in the measured response relative to a control, in per cent. As a reminder, the melting point is the temperature of the solid-liquid transition.
